One block for each compound: values may come before it. Active and inactive are the calls of the source. The rule behind the calls is not given here.
Tests used:
NCI-H358 [1] = assay: Inhibition of ERK phosphorylation in human NCI-H358 cells at 1 to 10 uM incubated for 24 hrs by Western blot analysis; type: cell-based; settings: dose 1-10 µM
NCI-H358 [2] = assay: Antiproliferative activity against human NCI-H358 cells harboring KRAS G12C mutant assessed as inhibition of cell proliferation incubated for 48 hrs by MTT assay; type: functional, cell-based; settings: NCI-H358, 48 h
MIA PaCa-2 [3] = assay: Antiproliferative activity against human MIA PaCa-2 cells harboring KRAS G12C mutant assessed as inhibition of cell proliferation incubated for 48 hrs by MTT assay; type: functional, cell-based; settings: MIA PaCa-2, 48 h
[4] = system: von Hippel-Lindau disease tumor suppressor/GTPase KRas (Homo sapiens), P01116+P40337 [G12C]; assay: Protac activity at VHL/KRAS G12C mutant in human NCI-H358 cells assessed as induction of KRAS G12C protein degradation at 1 uM incubated for 24 hrs by Western blot analysis; type: cell-based
[5] = system: von Hippel-Lindau disease tumor suppressor/GTPase KRas (Homo sapiens), P01116+P40337 [G12C]; assay: Protac activity at VHL/KRAS G12C mutant in human NCI-H358 cells assessed as induction of KRAS G12C protein degradation at 10 uM incubated for 24 hrs by Western blot analysis; type: cell-based
[6] = system: von Hippel-Lindau disease tumor suppressor/GTPase KRas (Homo sapiens), P01116+P40337 [G12C]; assay: Protac activity at VHL/KRAS G12C mutant in human NCI-H358 cells assessed as induction of KRAS G12C protein degradation at 10 uM preincubated for 1 hr with proteasome inhibitor, MG-132 followed by compound addition and measured after 24 hrs by Western blot analysis; type: cell-based
[7] = system: von Hippel-Lindau disease tumor suppressor/GTPase KRas (Homo sapiens), P01116+P40337 [G12C]; assay: Protac activity at VHL/KRAS G12C mutant in human NCI-H358 cells assessed as induction of KRAS G12C protein degradation incubated for 24 hrs by Western blot analysis; type: cell-based; settings: dose 5-25 µM
NCI-H358 [8] = assay: Antiproliferative activity against human NCI-H358 cells harboring KRAS G12C mutant assessed as inhibition of cell growth incubated for 5 days by celltiter-glow luminescent cell viability assay; type: functional, cell-based; settings: NCI-H358, 120 h
MIA PaCa-2 [9] = assay: Antiproliferative activity against human MIA PaCa-2 cells harboring KRAS G12C mutant assessed as inhibition of cell growth incubated for 5 days by celltiter-glow luminescent cell viability assay; type: functional, cell-based; settings: MIA PaCa-2, 120 h
[10] = system: Protein cereblon/GTPase KRas (Homo sapiens), P01116+Q96SW2 [G12C]; assay: Protac activity at CRBN/KRAS G12C mutant in human NCI-H358 cells assessed as induction of KRAS G12C protein degradation at 1 uM incubated for 24 hrs by Western blot analysis; type: cell-based
[11] = system: Protein cereblon/GTPase KRas (Homo sapiens), P01116+Q96SW2 [G12C]; assay: Protac activity at CRBN/KRAS G12C mutant in human NCI-H358 cells assessed as induction of KRAS G12C protein degradation at 10 uM preincubated for 1 hr with proteasome inhibitor, MG-132 followed by compound addition and measured after 24 hrs by Western blot analysis; type: cell-based
NCI-H358 [12] = assay: Antiproliferative activity against human NCI-H358 cells harboring KRAS G12C mutant assessed as inhibition of cell growth; type: functional, cell-based
GTPase KRas = GTPase KRas (Homo sapiens, UniProt P01116, G12C); assay: Induction of KRAS G12C degradation in human MIA PaCa-2 cells assessed as reduction in KRAS G12C protein level incubated for 24 hrs by immunoblotting analysis; type: cell-based
MIA PaCa-2 [13] = assay: Antiproliferative activity against human MIA PaCa-2 cells harboring KRAS G12C mutant assessed as inhibition of cell growth; type: functional, cell-based
[14] = system: GTPase KRas (Homo sapiens), P01116 [G12C]; assay: In vivo target occupancy at KRAS G12C mutant in human MIA PaCa-2 cells xenografted athymic BALB/c nude mouse measured at 30 mins; type: functional, cell-based
GTPase KRas (Homo sapiens), P01116 [G12C], sequence (P01116 whole entry G12C): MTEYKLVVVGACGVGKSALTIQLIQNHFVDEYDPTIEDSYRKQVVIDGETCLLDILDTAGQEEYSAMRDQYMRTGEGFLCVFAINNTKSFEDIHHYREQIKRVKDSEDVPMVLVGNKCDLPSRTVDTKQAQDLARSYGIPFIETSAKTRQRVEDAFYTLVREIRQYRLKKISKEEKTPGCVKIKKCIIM

GTPase KRas, sequence (P01116 whole entry G12C): as above

SMILES: C=CC(=O)N1CCN(c2nc(=O)n(-c3ccc(C(=O)NCCOCCOCCOCCOCC(=O)N[C@H](C(=O)N4C[C@H](O)C[C@H]4C(=O)NCc4ccc(-c5scnc5C)cc4)C(C)(C)C)cc3C(C)C)c3cc(-c4ccccc4Cl)c(Cl)cc23)[C@@H](C)C1
inhibition (NCI-H358 [1]): Active | IC50 (NCI-H358 [2]): 11.1 µM | IC50 (MIA PaCa-2 [3]): 17.9 µM | Activity [4]: inactive | Activity [5]: Active | Activity [6]: inactive | Activity [7]: Dose-Dependent Effect

IC50 (NCI-H358 [2]): > 10 µM | IC50 (MIA PaCa-2 [3]): > 10 µM
SMILES: C=CC(=O)N1CCN(c2nc(=O)n(-c3ccc(C(=O)O)cc3C(C)C)c3cc(-c4ccccc4Cl)c(Cl)cc23)[C@@H](C)C1

IC50 (NCI-H358 [8]): 0.51 µM | IC50 (MIA PaCa-2 [9]): 4.14 µM
SMILES: C=CC(=O)N1CCN(c2nc(NCCCN3CCN(CCCNc4cccc5c4C(=O)N(C4CCC(=O)NC4=O)C5=O)CC3)nc3c(F)c(-c4cc(O)cc5ccccc45)c(Cl)cc23)CC1 (configuration not stated)

SMILES: C=CC(=O)N1CCN(c2nc(=O)n(-c3ccc(C(=O)NCCCC(=O)Nc4cccc5c4CN(C4CCC(=O)NC4=O)C5=O)cc3C(C)C)c3cc(-c4ccccc4Cl)c(Cl)cc23)[C@@H](C)C1 (some centres not stated)
Activity [10]: inactive | Activity [11]: inactive | IC50 (NCI-H358 [2]): 22.7 µM | IC50 (MIA PaCa-2 [3]): 17.1 µM

IC50 (NCI-H358 [12]): 0.001 µM
SMILES: C=C(F)C(=O)N1CCN(c2nc(OC[C@@H]3CCCN3C)nc3c2CCN(c2cccc4cccc(Cl)c24)C3)C[C@@H]1CC#N [ADAGRASIB]

EC50 (GTPase KRas): 0.32 µM
SMILES: C=C(F)C(=O)N1CCN(c2nc(OC[C@@H]3CCCN3CCCOCCC(=O)N[C@H](C(=O)N3C[C@H](O)C[C@H]3C(=O)NCc3ccc(-c4scnc4C)cc3)C(C)(C)C)nc3c2CCN(c2cccc4cccc(Cl)c24)C3)C[C@@H]1CC#N

SMILES: C=CC(=O)N1CCN(c2nc(=O)n(-c3ccc(C(=O)NCc4cn(CCOCCOCCOCCOCC(=O)N[C@H](C(=O)N5C[C@H](O)C[C@H]5C(=O)NCc5ccc(-c6scnc6C)cc5)C(C)(C)C)nn4)cc3C(C)C)c3cc(-c4ccccc4Cl)c(Cl)cc23)[C@@H](C)C1
inhibition (NCI-H358 [1]): Active | IC50 (NCI-H358 [2]): 17.1 µM | IC50 (MIA PaCa-2 [3]): 24.3 µM | Activity [4]: inactive | Activity [5]: Active | Activity [6]: inactive

IC50 (MIA PaCa-2 [13]): 0.022 µM
SMILES: C=CC(=O)N1CCN(c2nc(=O)n(-c3c(C)ccnc3C(C)C)c3nc(-c4c(O)cccc4F)c(F)cc23)[C@@H](C)C1 [SOTORASIB]

Occ [14]: > 75%
SMILES: C=CC(=O)N1CCN(c2ncnc3c(F)c(-c4c(O)cccc4F)c(Cl)cc23)CC1

SMILES: C=CC(=O)N1CCN(c2nc(=O)n(-c3ccc(C(=O)NCCCCCC(=O)N[C@H](C(=O)N4C[C@H](O)C[C@H]4C(=O)NCc4ccc(-c5scnc5C)cc4)C(C)(C)C)cc3C(C)C)c3cc(-c4ccccc4Cl)c(Cl)cc23)[C@@H](C)C1
IC50 (NCI-H358 [2]): 14.2 µM | IC50 (MIA PaCa-2 [3]): 24.2 µM | Activity [4]: inactive | Activity [5]: Active | Activity [6]: inactive

IC50 (NCI-H358 [2]): 1.48 µM | IC50 (MIA PaCa-2 [3]): 0.77 µM
SMILES: C=CC(=O)N1CCN(c2nc(=O)n(-c3ccccc3C(C)C)c3cc(-c4ccccc4Cl)c(Cl)cc23)[C@@H](C)C1
